Positions of bridges follow the written chain, without caps; N, C: chain ends. Chains are numbered I, II in the order given. No end group written: not given here.
B1: CPF-4: 16 amino acid chain (SEQ ID NO:2) disulfide bonded to the 54 amino acid chain of MPF-4 (SEQ ID NO:1) (protein)
chain 1: EAEEDGDLQCLCVKTT
chain 2: SQVRPRHITSLEVIKAGPHCPTAQLIATLKNGRKICLDLQAPLYKKIIKKLLES
modifications: disulfide I:10-II:20, I:12-II:36; not fully specified

How the values were obtained:
endothelial cells = experiment: Endothelial cell proliferation inhibition assay; assay type: cell-based, bovine; details: endothelial cells with 20 ng/ml fibroblast growth factor, four days growth, cell count; for IC50, inhibition of endothelial cell proliferation: average of 4 wells; for IC50: molar figure in parentheses
Experimental: Primary retinal capillary endothelial cell cultures were prepared in substantial accordance with the procedure described in Buzney et al., Retinal Vascular Endothelial Cells and Pericytes: Differential Growth Characteristics in vitro, Invest. Ophthalmol. Visual Sci. 24: 470-483 (1983) and separated from contaminating cells as described in Voyta et al., Identification and Isolation of Endothelial Cells Based on their Increased Uptake of Acetylated-low density Lipoprotein, J. Cell Biol. 99: 2034-2040 (1981).
Alternatively, bovine heart endothelial cells were obtained (American Type Culture Collection; Rockville, Md. 20852) for use in the assay. Irrespective of source, the endothelial cells were seeded into 24 well tissue culture plates at a cell density of 10,000 cells/well in Dulbecco's modified Eagle Medium (GIBCO; Grand Island, N.Y.) supplemented with 5% bovine serum albumin, 1% penicillin-streptomycin, 1% L-glutamine, and 20 ng/ml fibroblast growth factor. Immediately after seeding the cells, various amounts of PF-4 (Sigma Chemical Co.; St. Louis, Mo. 63178), MPF-4, or CPF-4 (isolated as describe in the above examples) were added to individual growth wells. MPF-4 and CPF-4 were tested at final concentrations ranging from 0.001 to 1 μ/ml. For comparison, native PF-4 was tested over a range of 0.001 to 3 μ/ml, and supplemented medium alone served as the negative control. The endothelial cell cultures were allowed to grow for four days at 37 C., 5% CO2 in a humidified tissue culture incubator. The cultures were then harvested individually by trypsinization and counted using a Zm-Coulter Counter (Coulter Electronics. Inc.; Opa Locka, Fla. 33054).
The results were plotted in FIG. 1, and each point on the graph represented the average of 4 data points; ie […]. […] The inhibitory concentration for MPF-4 is close to the physiological range of PF-4 found in human plasma (Id.).

[1] = Heparin affinity chromatography; details: elute in high-affinity heparin binding fraction (0.7M to 2.0M NaCl)
Source text: The eluted proteins are then contacted with a heparin affinity resin. The ordinarily skilled artisan will readily realize that this step is best achieved in a column chromatography mode. Heparin affinity columns are commercially available from some of the same vendors mentioned above. In this step, the molecules of interest, both MPF-4 or CPF-4, bind to the heparin column and are eluted using an increasing linear salt gradient. The preferred salt is NaCl, and the portion of the gradient that is preferably collected is the 0.1-2.0M portion. The more highly preferred portion of the gradient to collect is the 0.7-2.0M portion.
The C4-pool was further fractionated by heparin affinity chromatography on a Econo-pac™ 5 ml heparin-sepharose cartridge (BioRad, Richmond, Calif. 94804). The bound proteins were eluted by a linear gradient of 0 to 2.0M NaCl in phosphate buffer saline (PBS) at a flow rate of 2.0 ml/min. The proteins that eluted from the column were pooled into three fractions: (1) non-heparin binding (flow through), (2) low-affinity heparin binding (0 to 0.7M NaCl), and (3) high-affinity heparin binding (0.7M to 2.0M NaCl) fractions.

Row | Molecule | IC50, inhibition of endothelial cell proliferation (endothelial cells) | IC50 (endothelial cells) | heparin binding [1]
1 | MPF-4: 54 amino acid protein, SEQ ID NO:1; homologous with the 54 C-terminal residues of PF-4, beginning with Ser-17 (SQVRPRHITSLEVIKAGPHCPTAQLIATLKNGRKICLDLQAPLYKKIIKKLLES) | 0.03 to 0.05 µg/mL | ~7 nM | bind heparin
2 | PF-4: native human platelet factor-4 (Sigma Chemical Co.), tested for comparison [reference compound] | 0.8 to 1 µg/mL | ~130 nM | –
3 | B1 | approximately 150 ng/ml | 20 nM | bind heparin

— US5538949A, “Modified platelet factor-4 and cleaved platelet factor 4” (Eli Lilly and Company, priority 1995, dated 1996)
